Measurements published in patent US20170340636A1, “COMPOSITIONS AND METHODS FOR INHIBITION OF AUTOPHAGY” (Board of Regents, The University of Texas System, priority 2016, published 2017).

What was measured:
U2OS GFP-LC3 cells = assay: p62 accumulation by western blot (autophagic flux); assay type: cell-based, human; conditions: 50 μM, 24 hours
Protocol: FIG. 4A) U2OS cells stably expressing the GFP-LC3 fusion transgene were treated with the indicated compound at 50 μM concentration for 24 hours before GFP fluorescence was measured by flow cytometry. The median fluorescent value from 20,000 cells per condition was normalized to that of vehicle alone (DMSO) within a given experiment. The mean+SD of >2 independent experiments is shown. ****, p<0.0001; ***, p<0.001; **, p<0.01; ns, p>0.05 versus vehicle alone (DMSO) by unpaired t test. FIG. 4B) TAOK2 inhibitors induce accumulation of p62. U2OS GFP-LC3 cells were treated with the indicated compounds at 50 μM concentration, or DMSO alone, for 24 hours. Lysates were collected and analyzed by western blot using the indicated antibodies. XPB was used as a loading control.
U2OS GFP-LC3 cells were seeded in 6-well plates at 150,000 cells per well in Dulbecco's Modified Eagle Medium supplemented with 10% fetal bovine serum. Twenty-four hours after seeding, the indicated compounds were added to a final concentration of 50 µM, or an equivalent volume of vehicle alone (DMSO) was added. Twenty-four hours after compound addition, cells were rinsed twice with PBS and then lysed in 2× sample buffer. Lysates were boiled for 5 minutes, sonicated to shear DNA, separated by SDS-PAGE, and transferred to PVDF membranes (Biorad). The membranes were blocked in 5% milk in TBS-T (Tris-Buffered-Saline, Tween 20) for one hour at room temperature and then incubated with primary antibody in blocking solution overnight at 4° C. Membranes were then washed, incubated with secondary antibody in blocking solution, washed again, and analyzed by enhanced chemiluminescence followed by exposure to film.
Degradation of the autophagy scaffold and LC3 binding protein p62 is a second marker of autophagic flux. p62 degradation was assayed by Western blotting (FIG. 4B).

ASK1 = biological target: T1, ASK1 (Homo sapiens, UniProt Q99683); assay: DSF against ASK1 (selectivity panel of MAPK cascade members); assay type: binding; conditions: difference between the TAOK2 ΔTm and that of ASK1, DSF
T1 sequence (Q99683 1-1374): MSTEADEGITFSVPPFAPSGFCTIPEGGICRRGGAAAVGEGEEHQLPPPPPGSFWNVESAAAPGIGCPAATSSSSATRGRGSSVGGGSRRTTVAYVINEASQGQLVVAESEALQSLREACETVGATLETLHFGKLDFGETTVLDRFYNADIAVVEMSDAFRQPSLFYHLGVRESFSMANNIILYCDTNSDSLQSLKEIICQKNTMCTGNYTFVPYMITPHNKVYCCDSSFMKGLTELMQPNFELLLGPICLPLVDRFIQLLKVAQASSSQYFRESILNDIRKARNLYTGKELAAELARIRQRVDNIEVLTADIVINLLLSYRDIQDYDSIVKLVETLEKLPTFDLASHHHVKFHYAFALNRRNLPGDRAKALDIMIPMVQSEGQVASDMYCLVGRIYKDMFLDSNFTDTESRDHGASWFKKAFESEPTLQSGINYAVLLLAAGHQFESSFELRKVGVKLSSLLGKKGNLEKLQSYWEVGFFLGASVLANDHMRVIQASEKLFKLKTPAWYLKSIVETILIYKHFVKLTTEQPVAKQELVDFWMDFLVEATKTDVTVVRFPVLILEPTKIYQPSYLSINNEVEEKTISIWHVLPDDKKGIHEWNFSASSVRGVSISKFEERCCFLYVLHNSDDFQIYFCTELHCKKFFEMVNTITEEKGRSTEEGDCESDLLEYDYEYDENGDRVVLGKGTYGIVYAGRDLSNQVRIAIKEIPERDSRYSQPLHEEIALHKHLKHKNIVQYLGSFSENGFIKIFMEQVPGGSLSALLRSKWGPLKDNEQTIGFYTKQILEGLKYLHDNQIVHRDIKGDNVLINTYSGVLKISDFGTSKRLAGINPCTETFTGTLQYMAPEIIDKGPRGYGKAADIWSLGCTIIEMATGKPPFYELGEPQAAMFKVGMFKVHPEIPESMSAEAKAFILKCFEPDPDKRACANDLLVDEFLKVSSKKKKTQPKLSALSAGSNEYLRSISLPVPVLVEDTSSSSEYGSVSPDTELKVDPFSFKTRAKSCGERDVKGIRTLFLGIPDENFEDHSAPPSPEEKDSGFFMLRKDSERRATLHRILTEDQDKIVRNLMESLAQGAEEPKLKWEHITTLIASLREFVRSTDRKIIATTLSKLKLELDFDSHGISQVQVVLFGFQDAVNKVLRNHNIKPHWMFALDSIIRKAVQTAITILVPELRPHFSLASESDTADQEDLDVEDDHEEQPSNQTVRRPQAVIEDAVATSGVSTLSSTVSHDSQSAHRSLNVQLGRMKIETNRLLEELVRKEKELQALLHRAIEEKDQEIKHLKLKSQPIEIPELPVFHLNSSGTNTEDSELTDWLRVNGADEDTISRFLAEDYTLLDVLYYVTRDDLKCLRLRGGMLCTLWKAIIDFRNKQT
Protocol: Differential scanning fluorimetry binding assays of selected compounds against TAOK2 were conducted to measure strength of compound binding. A solution of 5 μM TAOK2, 50 mM MgCl2, 50 mM HEPES pH 7.5, and 2.5x SyproOrange(Life Technologies) was made. Compound was added to a final concentration of 1 μM. 25 μl of the reaction solution was added to the wells of a Biorad Multiplate 96 wellclear PCR plate. The plate was covered with a Biorad Microseal ‘B’ seal. Plates were read in a Biorad CFX96 Real-Time PCR system. The temperature was increased from 4° C. to 80° C., with fluorescence measurements being taken every 0.5° C. in the 6-FAM Fluorescein channel. The fluorescence response to heat curve was fit to a binding isotherm in order to determine the inflection point, which was taken as the melt temperature (Tm).
The difference between the TAOK2 ΔTm and that of p38 and ASK1 was determined. […] The majority of the other compounds were also preferentially inhibitory toward TAOK2. Of the 13 compounds, SW034538, SW172006 and SW083688 were cross-verified for selectivity by performing a specificity screen against 45 kinases commercially at Eurofins Cerep, Inc. (FIG. 3).

ΔΔTm (ASK1) (ASK1) [°C]	SMILES	abundance of p62 (U2OS GFP-LC3 cells)
2.7	CCC(=O)Nc1nc(C)c(-c2csc(Nc3cc(OC)ccc3OC)n2)s1 [SW034538]	did not appear to increase the appearance of p62
2.1	CCOCCCn1c(=S)[nH]c2cc(C(=O)NCC3COc4ccccc4O3)ccc2c1=O (stereo not drawn) [SW083688]	increased the abundance of p62
1.2	CS(=O)(=O)c1ccc2nc(NC(=O)CCCOc3ccc(Cl)cc3)sc2c1 [SW172006]	increased the abundance of p62
